Reference: patent US20040254162A1, “Oxazolidinone derivatives as antimicrobials” (priority 2001, published 2004)
≈ marks a conversion by molar mass, not a printed value. Where two headings read alike, the source gives them in different places.

Legend:
[1] = tested on: clinically relevant gram positive pathogens; settings: nearly all clinically relevant gram positive pathogens; cited from earlier work
[2] = tested on: Mycobacterium tuberculosis
[3] = tested on: MRSA 562; test: In vivo activity against MRSA 562 (ED50); set-up: species or system Methicillin Resistant Staphylococcus aureus; settings: PO; MRSA 562 infection
[4] = tested on: Fusobacterium montiferum; test: Agar dilution MIC, anaerobes; assay type: cell-based; settings: Fusobacterium, single isolates, anaerobic agar dilution; read-out: MIC Fusobacterium montiferum
[5] = tested on: Ent. faecalis ATCC 29212; test: MIC, agar incorporation method; settings: Enterococcus faecalis, ATCC29212, read-out: MIC E. faecalis 29212
[6] = tested on: Mycobacterium tuberculosis; test: microbe, parasite or virus in culture; settings: 504 h
[7] = tested on: Clostridium difficile; test: Agar dilution MIC, anaerobes; assay type: cell-based; settings: Clostridioides difficile, single isolates, anaerobic agar dilution; read-out: MIC Clostridium difficile
[8] = tested on: Strep. pyog. ATCC 19615; test: MIC, agar incorporation method; settings: Streptococcus pyogenes, ATCC19615, read-out: MIC S. pyogenes 19615
[9] = tested on: Eubacterium leutum; test: Agar dilution MIC, anaerobes; assay type: cell-based; settings: Eubacterium, single isolates, anaerobic agar dilution; read-out: MIC Eubacterium leutum
[10] = tested on: MRSA 562; test: MIC, agar incorporation method; settings: Staphylococcus aureus, MRSA
[11] = tested on: Prevotella melaninogenica; test: Agar dilution MIC, anaerobes; assay type: cell-based; settings: single isolates, anaerobic agar dilution
[12] = tested on: Prevotella intermedia; test: Agar dilution MIC, anaerobes; assay type: cell-based; settings: single isolates, anaerobic agar dilution
[13] = tested on: Fusobacterium nucleatum; test: Agar dilution MIC, anaerobes; assay type: cell-based; settings: single isolates, anaerobic agar dilution
[14] = tested on: Peptostreptococcus magnum; test: Agar dilution MIC, anaerobes; assay type: cell-based; settings: single isolates, anaerobic agar dilution
[15] = tested on: Peptostreptococcus asaccharolyticus; test: Agar dilution MIC, anaerobes; assay type: cell-based; settings: single isolates, anaerobic agar dilution
[16] = tested on: Porphyromonas asaccharolytica; test: Agar dilution MIC, anaerobes; assay type: cell-based; settings: Porphyromonas asaccharolytica; single isolate, anaerobic agar dilution; read-out: MIC Porphyromonas asaccharolytica
[17] = tested on: S. pneumoniae; test: Summary of in vitro activity (MIC); settings: Streptococcus pneumoniae
[18] = tested on: VRE 6A (Ent. faecium 6A); test: MIC, agar incorporation method; settings: Enterococcus, VRE, read-out: MIC VRE 6A
[19] = tested on: Prevotella (Bacteroides) disiens; test: Agar dilution MIC, anaerobes; assay type: cell-based; settings: single isolates, anaerobic agar dilution; read-out: MIC Prevotella (Bacteroides) disiens
[20] = in vivo; cited from earlier work
[21] = tested on: Strep. pne. ATCC 6303; test: MIC, agar incorporation method; settings: Streptococcus pneumoniae, ATCC6303, read-out: MIC S. pneum 6303
[22] = tested on: Bacteroides fragilis; test: Agar dilution MIC, anaerobes; assay type: cell-based; settings: Bacteroides fragilis, single isolates, anaerobic agar dilution; read-out: MIC Bacteroides fragilis
[23] = tested on: Peptostreptococcus micros; test: Agar dilution MIC, anaerobes; assay type: cell-based; settings: single isolates, anaerobic agar dilution
[24] = tested on: MRSA 33; test: MIC, agar incorporation method; settings: Staphylococcus aureus, MRSA, read-out: MIC MRSA 33
[25] = tested on: Fusobacterium varium; test: Agar dilution MIC, anaerobes; assay type: cell-based; settings: Fusobacterium varium, single isolates, anaerobic agar dilution; read-out: MIC Fusobacterium varium
[26] = tested on: Clostridium perfringens; test: microbe, parasite or virus in culture; assay type: cell-based; settings: Clostridium perfringens, read-out: MIC Clostridium perfringens, single isolates, anaerobic agar dilution
[27] = Changes in MIC under different conditions: agar MIC; assay type: cell-based; settings: strain not given
[28] = Changes in MIC under different conditions: broth MIC; assay type: cell-based; settings: strain not given
[29] = tested on: S. aureus ATCC 25923; test: MIC, agar incorporation method; settings: Staphylococcus aureus, ATCC25923, read-out: MIC S. aureus 25923
[30] = tested on: E. faecalis; test: Summary of in vitro activity (MIC); settings: Enterococcus faecalis
[31] = tested on: G +ve bacteria; test: Summary of in vitro activity (MIC)
[32] = tested on: MRSE 879; test: Broth MIC, MRSE 879; assay type: cell-based; settings: Staphylococcus epidermidis; MRSE 879; read-out: broth MIC
[33] = tested on: MRSE 879 adherent bacteria; test: Sintered glass adherent bacteria model; settings: MRSE 879, sintered glass adherent bacteria model
[34] = read-out: Geometric Mean of in vitro activity (MIC)

SMILES: CC(=O)NC[C@H]1CN(c2ccc(N3CCOCC3)c(F)c2)C(=O)O1 [Linezolid]
- MIC90 [1]: 2 to 4 µg/mL
- G.M. [2]: 8 µg/mL
- ED50 (mg/kg body weight) PO [3]: 4.56 mg/kg body weight
- MIC [4]: 0.25 µg/mL (≈ 0.741 µM)
- MIC [5]: 2 µg/mL (≈ 5.93 µM)
- MIC50 [6]: 8 µg/mL (≈ 23.7 µM)
- MIC90 [6]: 64 µg/mL (≈ 190 µM)
- MIC [7]: 2 µg/mL (≈ 5.93 µM)
- MIC [8]: 2 µg/mL (≈ 5.93 µM)
- MIC [9]: 1 µg/mL (≈ 2.96 µM)
- MIC [10]: 2 µg/mL (≈ 5.93 µM)
- MIC ([10]; read-out: MIC MRSA 562): 2 µg/mL (≈ 5.93 µM)
- MIC ([11]; Prevotella melaninogenica, read-out: MIC Prevotella melaninogenica): 1 µg/mL (≈ 2.96 µM)
- MIC Prevotella melaninogenica [11]: 2 µg/mL (≈ 5.93 µM)
- MIC ([12]; Prevotella intermedia, read-out: MIC Prevotella intermedia): 0.5 µg/mL (≈ 1.48 µM)
- MIC Prevotella intermedia [12]: 1 µg/mL (≈ 2.96 µM)
- MIC ([13]; Fusobacterium nucleatum, read-out: MIC Fusobacterium nucleatum): 0.5 µg/mL (≈ 1.48 µM)
- MIC Fusobacterium nucleatum [13]: 1 µg/mL (≈ 2.96 µM)
- MIC ([14]; Peptostreptococcus, read-out: MIC Peptostreptococcus magnum): 2 µg/mL (≈ 5.93 µM)
- MIC Peptostreptococcus magnum [14]: 1 µg/mL (≈ 2.96 µM)
- MIC ([15]; Peptoniphilus asaccharolyticus): 0.5 µg/mL (≈ 1.48 µM)
- MIC Peptostreptococcus asaccharolyticus [15]: 1 µg/mL (≈ 2.96 µM)
- MIC [16]: 1 µg/mL (≈ 2.96 µM)
- MIC50 [17]: 0.5 µg/mL (≈ 1.48 µM)
- MIC90 [17]: 2 µg/mL (≈ 5.93 µM)
- MIC [17, 34]: 0.6 µg/mL (≈ 1.78 µM)
- MIC [18]: 2 µg/mL (≈ 5.93 µM)
- MIC [19]: 4 µg/mL (≈ 11.9 µM)
- Cmax [20]: 12000 to 16000 ng/mL
- MIC [21]: 2 µg/mL (≈ 5.93 µM)
- MIC [22]: 4 µg/mL (≈ 11.9 µM)
- MIC ([23]; Parvimonas micra, read-out: MIC Peptostreptococcus micros): 0.5 µg/mL (≈ 1.48 µM)
- MIC Peptostreptococcus micros [23]: 1 µg/mL (≈ 2.96 µM)
- MIC [24]: 2 µg/mL (≈ 5.93 µM)
- MIC [25]: 1 µg/mL (≈ 2.96 µM)
- MIC [26]: 2 µg/mL (≈ 5.93 µM)
- Agar MIC [27]: 2 µg/mL
- Broth MIC +50% Sheep serum ([28]; +50% sheep serum): 2 µg/mL
- Broth MIC Normal MH broth ([28]; normal MH broth): 1 µg/mL
- MIC [29]: 2 µg/mL (≈ 5.93 µM)
- MIC50 [30]: 4 µg/mL (≈ 11.9 µM)
- MIC90 [30]: 16 µg/mL (≈ 47.4 µM)
- MIC [30, 34]: 4 µg/mL (≈ 11.9 µM)
- MIC50 [31]: 2 µg/mL (≈ 5.93 µM)
- MIC90 [31]: 4 µg/mL (≈ 11.9 µM)
- MIC [32]: 2 µg/mL (≈ 5.93 µM)
- concentration which would kill adherent bacteria [33]: 32 µg/mL
